Data as given in patent US11053204B2, “Pyrimidinyloxy benzene derivatives as herbicides” (FMC Corporation, priority 2015, dated 2021).

Key:
Format in all cases: in vivo
[1] = test system: barnyardgrass (Echinochloa crus-galli); assay: Test A preemergence, visual injury rating; conditions: for Plant response rating, Barnyardgrass: 31 g ai/ha, 0 to 100 scale, 0 no effect, 100 complete control; for Barnyardgrass plant response rating: 125 g ai/ha, 0 to 100 scale (0 no effect, 100 complete control)
Procedure, shortened: (§1)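 Visual 0–100 rating (100 = complete control) taken about 10 d post-treatment relative to untreated checks. Preemergence: directed soil spray on sown loam/sand pots. Postemergence: seedlings 2–10 cm, 1–2 leaf. Non-phytotoxic solvent formulation with surfactant.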

kochia (Kochia scoparia) [2] = assay: Test A preemergence, visual injury rating; conditions: for Plant response rating, Kochia: 31 g ai/ha, 0 to 100 scale, 0 no effect, 100 complete control; for Kochia plant response rating: 125 g ai/ha, 0 to 100 scale (0 no effect, 100 complete control)
Procedure, shortened: as §1

[3] = test system: giant foxtail (Setaria faberii); assay: Test A preemergence, visual injury rating; conditions: for Plant response rating, Foxtail, Giant: 31 g ai/ha, 0 to 100 scale, 0 no effect, 100 complete control; for Foxtail, Giant plant response rating: 125 g ai/ha, 0 to 100 scale (0 no effect, 100 complete control)
Procedure, shortened: as §1

[4] = test system: ragweed (common ragweed, Ambrosia elatior); assay: Test A preemergence, visual injury rating; conditions: for Plant response rating, Ragweed: 31 g ai/ha, 0 to 100 scale, 0 no effect, 100 complete control; for Ragweed plant response rating: 125 g ai/ha, 0 to 100 scale (0 no effect, 100 complete control)
Procedure, shortened: as §1

[5] = test system: pigweed (Amaranthus retroflexus); assay: Test A preemergence, visual injury rating; conditions: for Plant response rating, Pigweed: 31 g ai/ha, 0 to 100 scale, 0 no effect, 100 complete control; for Pigweed plant response rating: 125 g ai/ha, 0 to 100 scale (0 no effect, 100 complete control)
Procedure, shortened: as §1

[6] = test system: Italian ryegrass (Lolium multiflorum); assay: Test A preemergence, visual injury rating; conditions: for Plant response rating, Ryegrass, Italian: 31 g ai/ha, 0 to 100 scale, 0 no effect, 100 complete control; for Ryegrass, Italian plant response rating: 125 g ai/ha, 0 to 100 scale (0 no effect, 100 complete control)
Procedure, shortened: as §1

[7] = test system: barnyardgrass (Echinochloa crus-galli); assay: Test B flooded paddy test, plant response rating; conditions: 250 g ai/ha; Flood; scale of 0 to 100 where 0 is no effect and 100 is complete control; 13 to 15 days
Procedure, shortened: (§2)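 Under a constant 3 cm flood, test compounds went directly into the paddy water. Following 13 to 15 days of greenhouse growth, treated species and controls were compared by eye.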

[8] = test system: sedge, umbrella (small-flower umbrella sedge, Cyperus difformis); assay: Test B flooded paddy test, plant response rating; conditions: 250 g ai/ha; Flood; scale of 0 to 100 where 0 is no effect and 100 is complete control; 13 to 15 days
Procedure, shortened: as §2

[9] = test system: ducksalad (Heteranthera limosa); assay: Test B flooded paddy test, plant response rating; conditions: 250 g ai/ha; Flood; scale of 0 to 100 where 0 is no effect and 100 is complete control; 13 to 15 days
Procedure, shortened: as §2

rice (Oryza sativa) = assay: Test B flooded paddy test, plant response rating; conditions: 250 g ai/ha; Flood; scale of 0 to 100 where 0 is no effect and 100 is complete control; 13 to 15 days
Procedure, shortened: as §2

[10] = test system: barnyardgrass (Echinochloa crus-galli); assay: Test A postemergence, visual injury rating; conditions: 0 is no effect, 100 is complete control; for Barnyardgrass plant response rating: 31 g ai/ha, 0 to 100 scale, approximately 10 days; for Barnyardgrass plant response rating (0 to 100 scale): 125 g ai/ha
Procedure, shortened: as §1

kochia (Kochia scoparia) [11] = assay: Test A postemergence, visual injury rating; conditions: 0 is no effect, 100 is complete control; for Kochia plant response rating: 31 g ai/ha, 0 to 100 scale, approximately 10 days; for Kochia plant response rating (0 to 100 scale): 125 g ai/ha
Procedure, shortened: as §1

[12] = test system: giant foxtail (Setaria faberii); assay: Test A postemergence, visual injury rating; conditions: 0 is no effect, 100 is complete control; for Foxtail, Giant plant response rating: 31 g ai/ha, 0 to 100 scale, approximately 10 days; for Foxtail, Giant plant response rating (0 to 100 scale): 125 g ai/ha
Procedure, shortened: as §1

[13] = test system: galium (catchweed bedstraw, Galium aparine); assay: Test A postemergence, visual injury rating; conditions: 0 is no effect, 100 is complete control; for Galium plant response rating: 31 g ai/ha, 0 to 100 scale, approximately 10 days; for Galium plant response rating (0 to 100 scale): 125 g ai/ha
Procedure, shortened: as §1

[14] = test system: ragweed (common ragweed, Ambrosia elatior); assay: Test A postemergence, visual injury rating; conditions: 0 is no effect, 100 is complete control; for Ragweed plant response rating: 31 g ai/ha, 0 to 100 scale, approximately 10 days; for Ragweed plant response rating (0 to 100 scale): 125 g ai/ha
Procedure, shortened: as §1

[15] = test system: wheat (Triticum aestivum); assay: Test A postemergence, visual injury rating; conditions: 0 is no effect, 100 is complete control; for Wheat plant response rating: 31 g ai/ha, 0 to 100 scale, approximately 10 days; for Wheat plant response rating (0 to 100 scale): 125 g ai/ha
Procedure, shortened: as §1

[16] = test system: pigweed (Amaranthus retroflexus); assay: Test A postemergence, visual injury rating; conditions: 0 is no effect, 100 is complete control; for Pigweed plant response rating: 31 g ai/ha, 0 to 100 scale, approximately 10 days; for Pigweed plant response rating (0 to 100 scale): 125 g ai/ha
Procedure, shortened: as §1

corn (Zea mays) = assay: Test A postemergence, visual injury rating; conditions: 0 is no effect, 100 is complete control; for Corn plant response rating: 31 g ai/ha, 0 to 100 scale, approximately 10 days; for Corn plant response rating (0 to 100 scale): 125 g ai/ha
Procedure, shortened: as §1

[17] = test system: Italian ryegrass (Lolium multiflorum); assay: Test A postemergence, visual injury rating; conditions: 0 is no effect, 100 is complete control; for Ryegrass, Italian plant response rating: 31 g ai/ha, 0 to 100 scale, approximately 10 days; for Ryegrass, Italian plant response rating (0 to 100 scale): 125 g ai/ha
Procedure, shortened: as §1

[18] = test system: blackgrass (Alopecurus myosuroides); assay: Test A postemergence, visual injury rating; conditions: 0 is no effect, 100 is complete control; for Blackgrass plant response rating: 31 g ai/ha, 0 to 100 scale, approximately 10 days; for Blackgrass plant response rating (0 to 100 scale): 125 g ai/ha
Procedure, shortened: as §1

Structure (SMILES)	Plant response rating, Barnyardgrass [1]	Barnyardgrass plant response rating [1]	Plant response rating, Kochia (kochia (Kochia scoparia) [2])	Kochia plant response rating (kochia (Kochia scoparia) [2])	Plant response rating, Foxtail, Giant [3]	Foxtail, Giant plant response rating [3]	Plant response rating, Ragweed [4]	Ragweed plant response rating [4]	Plant response rating, Pigweed [5]	Pigweed plant response rating [5]	Plant response rating, Ryegrass, Italian [6]	Ryegrass, Italian plant response rating [6]	Plant response rating, Barnyardgrass [7]	Plant response rating, Sedge, Umbrella [8]	Plant response rating, Ducksalad [9]	Plant response rating, Rice (rice (Oryza sativa))	Barnyardgrass plant response rating [10]	Barnyardgrass plant response rating (0 to 100 scale) [10]	Kochia plant response rating (kochia (Kochia scoparia) [11])	Kochia plant response rating (0 to 100 scale) (kochia (Kochia scoparia) [11])	further results
CC(C)(C)OC(=O)c1c(F)cccc1Oc1ncc(Cl)cn1 [Compound 43]	0	40	100	100	0	60	0	0	30	90	0	0	0	0	0	0	0	10	0	10	Foxtail, Giant plant response rating [12]: 0; Foxtail, Giant plant response rating (0 to 100 scale) [12]: 0; Galium plant response rating [13]: 20; Galium plant response rating (0 to 100 scale) [13]: 40; Ragweed plant response rating [14]: 0; Ragweed plant response rating (0 to 100 scale) [14]: 0; Wheat plant response rating [15]: 0; Wheat plant response rating (0 to 100 scale) [15]: 0; Pigweed plant response rating [16]: 10; Pigweed plant response rating (0 to 100 scale) [16]: 40; Corn plant response rating (corn (Zea mays)): 0; Corn plant response rating (0 to 100 scale) (corn (Zea mays)): 0; Ryegrass, Italian plant response rating [17]: 0; Ryegrass, Italian plant response rating (0 to 100 scale) [17]: 0; Blackgrass plant response rating [18]: 0; Blackgrass plant response rating (0 to 100 scale) [18]: 0
C=CC(C)COC(=O)c1c(Br)cccc1Oc1ncc(Cl)cn1 (stereo not drawn) [Compound 37]	0	30	0	0	20	70	0	0	0	0	0	0	0	0	0	0	0	30	0	40	Foxtail, Giant plant response rating [12]: 0; Foxtail, Giant plant response rating (0 to 100 scale) [12]: 40; Galium plant response rating [13]: 10; Galium plant response rating (0 to 100 scale) [13]: 40; Ragweed plant response rating [14]: 0; Ragweed plant response rating (0 to 100 scale) [14]: 0; Wheat plant response rating [15]: 0; Wheat plant response rating (0 to 100 scale) [15]: 0; Pigweed plant response rating [16]: 20; Pigweed plant response rating (0 to 100 scale) [16]: 80; Corn plant response rating (corn (Zea mays)): 0; Corn plant response rating (0 to 100 scale) (corn (Zea mays)): 10; Ryegrass, Italian plant response rating [17]: 0; Ryegrass, Italian plant response rating (0 to 100 scale) [17]: 0; Blackgrass plant response rating [18]: 0; Blackgrass plant response rating (0 to 100 scale) [18]: 30
